Test results: patent publication US20090069302A1 (SMITHKLINE BEECHAM CORPORATION, priority 2006, published 2009)

Key:
AXOR109 = molecular target: T1, AXOR109 (Homo sapiens, UniProt Q8TDU6); assay: Human AXOR109/Melanophore Assay; type: cell-based; details: melanophore assay
T1 construct: expressed in transfected cells; host or cells: melanophore cells, transfected by electroporation
T1 sequence (Q8TDU6 1-330): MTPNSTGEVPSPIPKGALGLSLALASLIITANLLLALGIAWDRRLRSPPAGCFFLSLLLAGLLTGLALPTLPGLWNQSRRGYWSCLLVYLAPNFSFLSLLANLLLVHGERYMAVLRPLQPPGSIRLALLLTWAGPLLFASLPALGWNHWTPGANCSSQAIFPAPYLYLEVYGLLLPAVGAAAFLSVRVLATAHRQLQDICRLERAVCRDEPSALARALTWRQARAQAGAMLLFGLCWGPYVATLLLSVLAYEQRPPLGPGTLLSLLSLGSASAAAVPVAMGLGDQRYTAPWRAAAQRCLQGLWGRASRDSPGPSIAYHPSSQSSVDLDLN
Outline: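 Readout is melanosome dispersion in melanophores electroporated with human AXOR109, in buffer containing 10 nM melatonin and 1% DMSO. Transmittance was read before and after 1 h compound exposure across 11-point 3-fold dilutions. Response was normalized to 200 nM alpha-MSH as system max, and pEC50 was obtained from a Hill fit.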

CD rats = assay: Effect on GLP-1 secretion in CD rats, intracolonic injection; type: in vivo, rat; details: anesthetized CD rats, 2.5 mg intracolonic
Method: Twelve ten week old (six per group) anesthetized normal CD rats were dosed with vehicle (0.5% HPMC/0.1% Tween80) or 2.5 mg Example 9 through intracolonic injection at 0 time point after a control blood sample was collected. Blood samples were collected at 5, 15, 30 and 60 minutes after dosing. Plasma active, and […] total GLP-1 were measured (ELISA kits, LINCO), and values were converted to % of controls. […] The results are listed in Tables 2a and 2b, and graphically represented in FIGS. 1a and 1b, respectively.

GK rats [1] = assay: Sixteen day chronic intracolonic dosing study in GK rats (insulin, glucose, glucagon); type: in vivo, rat; details: 0.3 mg/kg QD intracolonic
Source text: (§1) The results are listed in Tables 4a and 4b, and graphically represented in FIGS. 3a and 3b, respectively.

GK rats [2] = assay: Glucose tolerance test in the chronic study in GK rats; type: in vivo, rat; parameters: glucose in glucose tolerance test: unit not given here; details: for glucose in glucose tolerance test: 0.3 mg/kg
Method: as §1
In the same chronic study in GK rats as in Tables 4a and 4b, an intravenous glucose tolerance test was performed on days 1, 3, 9, and 16.

GK rats [3] = assay: as above; type: in vivo, rat; details: treated versus vehicle group, in words
[4] = 0 min (control sample before dosing)

## COc1ccc(S(=O)(=O)N2CCCN(S(=O)(=O)c3ccc(OC)c(OC)c3)CC2)cc1OC [Example 9, 1,4-bis{[3,4-bis(methyloxy)phenyl]sulfonyl}hexahydro-1H-1,4-diazepine]
AXOR109; 1 h, normalized to alpha-MSH system max
  Emax: 51 to 75%
AXOR109; AXOR109 transfected melanophores
  EC50: 126 to 1000 nM
CD rats; [4]
  Portal Vein Active GLP-1 Levels (% of Controls): 100.00 % of Controls
  Portal Vein Total GLP-1 Levels (% of Controls): 100.00 % of Controls
CD rats; 5 min
  Portal Vein Active GLP-1 Levels (% of Controls): 175.27 % of Controls
  Portal Vein Total GLP-1 Levels (% of Controls): 182.84 % of Controls
CD rats; 15 min
  Portal Vein Active GLP-1 Levels (% of Controls): 352.50 % of Controls
  Portal Vein Total GLP-1 Levels (% of Controls): 308.38 % of Controls
CD rats; 30 min
  Portal Vein Active GLP-1 Levels (% of Controls): 298.49 % of Controls
  Portal Vein Total GLP-1 Levels (% of Controls): 263.34 % of Controls
CD rats; 60 min
  Portal Vein Active GLP-1 Levels (% of Controls): 286.95 % of Controls
  Portal Vein Total GLP-1 Levels (% of Controls): 246.00 % of Controls
CD rats; in words
  active and total GLP-1 level compared to controls: higher level of active and total GLP-1
GK rats [1]; day 3
  glucagon (pM): 21.31 pM
  glucose: 144.20 mg/dL
  insulin (pM): 223.24 pM
GK rats [1]; day 3 and day 9, in words
  insulin levels: normal insulin levels
GK rats [1]; day 9
  glucagon (pM): 21.67 pM
  glucose: 131.00 mg/dL
  insulin (pM): 240.29 pM
GK rats [1]; day 16
  glucagon (pM): 24.67 pM
  glucose: 169.00 mg/dL
  insulin (pM): 108.09 pM
GK rats [1]; day 16, in words
  glucagon levels: no increase in glucagons
GK rats [1]; pre dose
  glucagon (pM): 31.28 pM
  glucose: 107.17 mg/dL
  insulin (pM): 269.67 pM
GK rats [1]; sixteen days, in words
  development of hyperglycemia compared with vehicle: no hyperglycemia had developed
GK rats [2]; day 1, 0.00 min
  glucose in glucose tolerance test: 103.67
GK rats [2]; day 1, 5.00 min
  glucose in glucose tolerance test: 257.17
GK rats [2]; day 1, 15.00 min
  glucose in glucose tolerance test: 195.67
GK rats [2]; day 1, 30.00 min
  glucose in glucose tolerance test: 149.50
GK rats [2]; day 1, 60.00 min
  glucose in glucose tolerance test: 126.83
GK rats [2]; day 1, 90.00 min
  glucose in glucose tolerance test: 158.00
GK rats [2]; day 1, 120.00 min
  glucose in glucose tolerance test: 173.50
GK rats [2]; day 1, −20.00 min
  glucose in glucose tolerance test: 107.17
GK rats [2]; day 3, 0.00 min
  glucose in glucose tolerance test: 123.00
GK rats [2]; day 3, 5.00 min
  glucose in glucose tolerance test: 307.40
GK rats [2]; day 3, 15.00 min
  glucose in glucose tolerance test: 254.80
GK rats [2]; day 3, 30.00 min
  glucose in glucose tolerance test: 182.20
GK rats [2]; day 3, 60.00 min
  glucose in glucose tolerance test: 143.60
GK rats [2]; day 3, 90.00 min
  glucose in glucose tolerance test: 140.60
GK rats [2]; day 3, 120.00 min
  glucose in glucose tolerance test: 137.60
GK rats [2]; day 3, −20.00 min
  glucose in glucose tolerance test: 144.20
GK rats [2]; day 9, 0.00 min
  glucose in glucose tolerance test: 129.00
GK rats [2]; day 9, 5.00 min
  glucose in glucose tolerance test: 278.80
GK rats [2]; day 9, 15.00 min
  glucose in glucose tolerance test: 252.40
GK rats [2]; day 9, 30.00 min
  glucose in glucose tolerance test: 154.80
GK rats [2]; day 9, 60.00 min
  glucose in glucose tolerance test: 116.20
GK rats [2]; day 9, 90.00 min
  glucose in glucose tolerance test: 115.00
GK rats [2]; day 9, 120.00 min
  glucose in glucose tolerance test: 88.60
GK rats [2]; day 9, −20.00 min
  glucose in glucose tolerance test: 131.00
GK rats [2]; day 16, 0.00 min
  glucose in glucose tolerance test: 174.20
GK rats [2]; day 16, 5.00 min
  glucose in glucose tolerance test: 275.20
GK rats [2]; day 16, 15.00 min
  glucose in glucose tolerance test: 245.80
GK rats [2]; day 16, 30.00 min
  glucose in glucose tolerance test: 238.80
GK rats [2]; day 16, 60.00 min
  glucose in glucose tolerance test: 215.40
GK rats [2]; day 16, 90.00 min
  glucose in glucose tolerance test: 217.60
GK rats [2]; day 16, 120.00 min
  glucose in glucose tolerance test: 212.60
GK rats [2]; day 16, −20.00 min
  glucose in glucose tolerance test: 169.00
GK rats [2]; chronic study, day 16, in words
  development of hyperglycemia on day 16: hyperglycemia had developed in rats receiving vehicle, but not in the rats treated with Example 9
GK rats [3]
  Glucose excretion during the oral glucose tolerance test: less in the treated group as compared to the vehicle group
